In patent publication US20240299348A1, “MODULATORS OF TRPML, THEIR COMPOSITIONS AND METHODS OF USE” (Caraway Therapeutics, Inc., priority 2021, published 2024):

Tests used:
Assay type in all cases: cell-based
hTRPML1 = hTRPML1 (Homo sapiens, UniProt Q9GZU1); assay: TRPML1 fluorescent (Fluo-4) assay; parameters: Secondary Screening: Fluo-4: hTRPML1: EC50 (M); HEK-293 Trex cells expressing hTRPML1; conditions: activation; HEK-293 Trex cells expressing hTRPML1; read-out: Secondary Screening: Fluo-4: hTRPML1: EC50
Method: HEK-293 Trex cells were stably transfected with a construct consisting of the human coding sequence for TRPML1 cloned into the […] plasmid pCDNA5 T/O. Mutations were introduced into the TRPML1 sequence to facilitate expression on the cell surface (Silvia Vergarajauregui, Rosa Puertollano Traffic. 2006 March; 7(3): 337-353). Briefly, the cells are cultured in 150 mm round tissue culture dishes containing 20 mL of media. The day before the assay the cells are rinsed with DPBS—Ca—Mg and then treated briefly with Trypsin-EDTA. The Trypsin-EDTA is diluted with growth media, and cells are counted. 38×10^6 cells are re-plated into 150 mm round tissue culture dishes in media containing 0.5 ug/mL doxycycline to induce expression of hTRPML1.
The day of the experiment cells are lifted from the plates as above and collected by centrifugation. The cells are then suspended in dye loading buffer consisting of Ringer's solution supplemented with 0.1% Pluronic Acid and 1 micromolar Fluo4-AM dye. Cells are loaded for ˜60 minutes in the dark with occasional mixing. The cells are collected by centrifugation, the loading media aspirated, and the cells resuspended in 25 mL Ringer's solution and incubated ˜60 minutes in the dark. The cells are again collected by centrifugation, rinsed in Ringer's Solution and resuspended to 0.2×10^6 cells/mL in modified Ringer's solution containing 10 mM calcium.
Compounds are dissolved to a concentration of 10 millimolar with DMSO. Compound plates are created by dispensing compounds into 384 well black wall clear bottom plates (Greiner 781091). Positive and negative controls are included on each plate. Typically, different amounts of each compound are tested ranging from 100 nanoMoles (20 micromolar final concentration) decreasing in half-log steps to 31 picoMoles (6 nanomolar final concentration). Each concentration is typically tested in triplicate.
50 microliters of dye-loaded cells are dispensed into each well of the compound assay plate created above. The fluorescence in each well is then determined with an excitation wavelength of 480 nm and an emission wavelength of 540 nm using either a Molecular Devices SpectraMax multimode plate reader or a Hamamatsu FDSS/uCell plate imager.
The resulting fluorescence for each well is exported as an ascii file and loaded into our LIMS for analysis. The percent activity of each compound at each concentration is determined by comparison to the positive and negative control wells included in each plate.
(§1) EC50 values were calculated using a non-linear regression of Prism.

hTRPML3 = molecular target: T1, hTRPML3 (Homo sapiens, UniProt Q8TDD5); assay: TRPML3 fluorescent (Fluo-4) assay; conditions: activation; read-out: Secondary Screening: Fluo-4: hTRPML3: EC50
T1 construct: expressed in transfected cells; host or cells: HEK-293 Trex (by analogy, 'performed as above')
T1 sequence (Q8TDD5 1-553): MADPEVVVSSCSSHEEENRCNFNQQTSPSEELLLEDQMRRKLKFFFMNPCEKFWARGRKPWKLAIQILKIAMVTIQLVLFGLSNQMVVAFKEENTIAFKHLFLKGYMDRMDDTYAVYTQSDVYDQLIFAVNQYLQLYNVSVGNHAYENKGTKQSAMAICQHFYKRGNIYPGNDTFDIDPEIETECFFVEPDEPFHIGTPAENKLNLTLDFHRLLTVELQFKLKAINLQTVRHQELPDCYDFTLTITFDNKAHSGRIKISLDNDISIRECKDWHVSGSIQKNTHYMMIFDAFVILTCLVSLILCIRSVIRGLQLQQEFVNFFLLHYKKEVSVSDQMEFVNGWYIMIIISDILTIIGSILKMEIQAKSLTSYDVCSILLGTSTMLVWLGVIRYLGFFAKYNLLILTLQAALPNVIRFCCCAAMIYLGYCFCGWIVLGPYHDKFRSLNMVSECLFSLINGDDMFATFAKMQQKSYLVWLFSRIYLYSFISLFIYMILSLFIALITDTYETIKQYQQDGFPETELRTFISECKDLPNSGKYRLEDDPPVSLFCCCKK
Method: (§2) Assays for TRPML2 and TRPML3 were performed as above for TRPML1, by substituting the appropriate TRPML2 or TRPML3 subtype for the TRPML1.
as §1

hTRPML2 = molecular target: T2, hTRPML2 (Homo sapiens, UniProt Q8IZK6); assay: TRPML2 fluorescent (Fluo-4) assay; conditions: activation; read-out: Secondary Screening: Fluo-4: hTRPML2: EC50
T2 construct: expressed in transfected cells; host or cells: HEK-293 Trex (by analogy, 'performed as above')
T2 sequence (Q8IZK6 1-566): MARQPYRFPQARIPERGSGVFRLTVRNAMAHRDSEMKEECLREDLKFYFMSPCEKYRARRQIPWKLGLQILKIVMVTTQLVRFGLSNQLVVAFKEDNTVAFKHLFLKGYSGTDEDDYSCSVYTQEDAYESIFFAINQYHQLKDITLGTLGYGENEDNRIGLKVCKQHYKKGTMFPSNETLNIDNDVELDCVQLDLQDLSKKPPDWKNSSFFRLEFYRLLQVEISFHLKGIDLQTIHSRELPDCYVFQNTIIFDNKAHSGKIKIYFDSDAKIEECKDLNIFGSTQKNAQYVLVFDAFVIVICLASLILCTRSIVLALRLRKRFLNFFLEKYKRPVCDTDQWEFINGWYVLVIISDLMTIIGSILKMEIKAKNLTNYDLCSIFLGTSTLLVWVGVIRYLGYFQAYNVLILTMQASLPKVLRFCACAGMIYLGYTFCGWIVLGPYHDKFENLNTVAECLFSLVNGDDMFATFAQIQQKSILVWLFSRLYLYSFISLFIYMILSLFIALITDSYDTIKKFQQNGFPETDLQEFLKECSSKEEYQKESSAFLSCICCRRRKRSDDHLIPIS
Method: as §2, §1

Sequence of hTRPML1 (Q9GZU1 whole entry L15A/L16A/L577A/L578A, form open): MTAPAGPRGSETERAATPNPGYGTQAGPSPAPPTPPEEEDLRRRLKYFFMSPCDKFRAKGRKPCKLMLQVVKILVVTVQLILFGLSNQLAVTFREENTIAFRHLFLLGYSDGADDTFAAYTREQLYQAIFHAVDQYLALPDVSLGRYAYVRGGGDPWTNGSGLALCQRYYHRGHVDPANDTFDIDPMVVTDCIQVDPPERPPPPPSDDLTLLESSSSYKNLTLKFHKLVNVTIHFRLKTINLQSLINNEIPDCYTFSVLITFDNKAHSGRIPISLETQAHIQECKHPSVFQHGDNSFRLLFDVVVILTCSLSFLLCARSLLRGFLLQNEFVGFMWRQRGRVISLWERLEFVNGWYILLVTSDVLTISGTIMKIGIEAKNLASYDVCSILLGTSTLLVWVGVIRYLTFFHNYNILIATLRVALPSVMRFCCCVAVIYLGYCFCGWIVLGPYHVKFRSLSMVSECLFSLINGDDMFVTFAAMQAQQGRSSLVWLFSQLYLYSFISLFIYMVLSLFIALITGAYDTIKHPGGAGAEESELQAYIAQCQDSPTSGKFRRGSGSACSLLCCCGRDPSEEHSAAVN

| Compound | EC50 (hTRPML1) [nM] | EC50 (hTRPML3) [nM] | EC50 (hTRPML2) [nM] |
| --- | --- | --- | --- |
| CN(C)S(=O)(=O)c1ccc(S(=O)(=O)Nc2ccccc2C2CCN(c3ccc(Cl)cc3F)CC2)cc1 [Compound 108, N^1-(2-(1-(4-chloro-2-fluorophenyl)piperidin-4-yl)phenyl)-N^4,N^4-dimethylbenzene-1,4-disulfonamide] | 1000 to 5000 | 300 to 1000 | – |
| CN(C)S(=O)(=O)c1ccc(S(=O)(=O)Nc2ccccc2N2CCN(C34CC(C3)C4)CC2)cc1 [Compound 115, N^1-(2-(4-(bicyclo[1.1.1]pentan-1-yl)piperazin-1-yl)phenyl)-N^4,N^4-dimethylbenzene-1,4-disulfonamide] | 1000 to 5000 | 300 to 1000 | – |
| CN(c1ccccc1NS(=O)(=O)c1ccc(S(=O)(=O)N(C)C)cc1)C1CCN(C(=O)OC(C)(C)C)C1 (stereo not shown) [Compound 114, tert-butyl 3-((2-((4-(N,N-dimethylsulfamoyl)phenyl)sulfonamido)phenyl)(methyl)amino)pyrrolidine-1-carboxylate] | 1000 to 5000 | 300 to 1000 | – |
| CN(C)S(=O)(=O)c1ccc(S(=O)(=O)N[C@H]2CCCC[C@@H]2N2CCN(c3ccccc3F)CC2)cc1 (relative stereo) [Compound 116, trans-N^1-(2-(4-(2-fluorophenyl)piperazin-1-yl)cyclohexyl)-N^4,N^4-dimethylbenzene-1,4-disulfonamide] | 1000 to 5000 | 300 to 1000 | – |
| CN(C)S(=O)(=O)c1ccc(S(=O)(=O)Nc2ccccc2N2C[C@H]3C[C@@H]2CN3c2ccc(Cl)cc2F)cc1 [Compound 107, N^1-(2-((1R,4R)-5-(4-chloro-2-fluorophenyl)-2,5-diazabicyclo[2.2.1]heptan-2-yl)phenyl)-N^4,N^4-dimethylbenzene-1,4-disulfonamide] | 300 to 1000 | – | – |
| CN(C)S(=O)(=O)c1ccc(S(=O)(=O)Nc2ccccc2N2CCC3(CCN(c4ccc(Cl)cc4F)C3)C2)cc1 (stereo not shown) [Compound 103, N^1-(2-(7-(4-chloro-2-fluorophenyl)-2,7-diazaspiro[4.4]nonan-2-yl)phenyl)-N^4,N^4-dimethylbenzene-1,4-disulfonamide] | 300 to 1000 | – | – |
| CN(c1ccccc1NS(=O)(=O)c1ccc(S(=O)(=O)N(C)C)cc1)[C@@H]1CCN(c2ccc(Cl)cc2F)C1 [Compound 111, (R)-N^1-(2-((1-(4-chloro-2-fluorophenyl)pyrrolidin-3-yl)(methyl)amino)phenyl)-N^4,N^4-dimethylbenzene-1,4-disulfonamide] | 300 to 1000 | < 300 | – |
| CN(C)S(=O)(=O)c1ccc(S(=O)(=O)Nc2ccccc2N2CCC3(CN(c4ccc(Cl)cc4F)C3)C2)cc1 [Compound 102, N^1-(2-(2-(4-chloro-2-fluorophenyl)-2,6-diazaspiro[3.4]octan-6-yl)phenyl)-N^4,N^4-dimethylbenzene-1,4-disulfonamide] | 300 to 1000 | – | – |
| CN(c1ccccc1NS(=O)(=O)c1ccc(S(=O)(=O)N(C)C)cc1)C1CCN(c2ccccc2F)C1 (stereo not shown) [Compound 112, N^1-(2-((1-(2-Fluorophen-yl)pyrrolidin-3-yl)(meth-yl)amino)phenyl)-N^4,N^4-dimethylbenzene-1,4-disulfonamide] | 300 to 1000 | < 300 | – |
| CN(C)S(=O)(=O)c1ccc(S(=O)(=O)N[C@H]2CCCC[C@H]2N2CCN(c3ccc(Cl)cc3F)CC2)cc1 (stereo in doubt) [Compound 109, N^1-((1S,2R)-2-(4-(4-Chloro-2-fluorophenyl)piperazin-1-yl)cyclohexyl)-N^4,N^4-dimethylbenzene-1,4-disulfonamide] | 1000 to 5000 | 300 to 1000 | – |

Next, values leading:

| EC50 (hTRPML1) [nM] | EC50 (hTRPML3) [nM] | EC50 (hTRPML2) [nM] | Compound |
| --- | --- | --- | --- |
| 300 to 1000 | 300 to 1000 | 1000 to 5000 | CN(c1ccccc1NS(=O)(=O)c1ccc(S(=O)(=O)N(C)C)cc1)C1CCN(C(=O)OC2CCCCC2)C1 (stereo not shown) [Compound 124, cyclohexyl 3-((2-((4-(N,N-dimethylsulfamoyl)phenyl)sulfonamido)phenyl)(methyl)amino)pyrrolidine-1-carboxylate] |
| < 300 | < 300 | – | CN(c1ccccc1NS(=O)(=O)c1ccc(S(=O)(=O)N(C)C)cc1)[C@H]1CCN(c2ccc(Cl)cc2F)C1 [Compound 110, (S)-N^1-(2-((1-(4-chloro-2-fluorophenyl)pyrrolidin-3-yl)(methyl)amino)phenyl)-N^4,N^4-dimethylbenzene-1,4-disulfonamide] |
| < 300 | – | – | CN(c1ccc(Cl)cc1F)C1CCN(c2ccccc2NS(=O)(=O)c2ccc(S(=O)(=O)N(C)C)cc2)C1 (stereo not shown) [Compound 104, N^1-(2-(3-((4-chloro-2-fluorophenyl)(methyl)amino)pyrrolidin-1-yl)phenyl)-N^4,N^4-dimethylbenzene-1,4-disulfonamide] |
| 300 to 1000 | < 300 | – | Cc1ccc(S(=O)(=O)N[C@H]2CCCC[C@@H]2N2CCN(c3ccc(Cl)cc3F)CC2)cc1 (relative stereo) [Compound 117, trans-N-(2-(4-(4-chloro-2-fluoro-phenyl)piperazin-1-yl)cyclohexyl)-4-methylbenzene-sulfonamide] |
| < 300 | – | – | CN(C)S(=O)(=O)c1ccc(S(=O)(=O)Cc2ccccc2N2CCN(c3ccc(Cl)cc3F)CC2)cc1 [Compound 106, 4-(2-(4-(4-Chloro-2-fluorophenyl)piperazin-1-yl)benzylsulfonyl)-N,N-dimethylbenzenesulfonamide] |
| < 300 | – | > 5000 | CN([C@H]1CCN(c2ccc(Cl)cc2F)C1)[C@H]1CCCC[C@@H]1NS(=O)(=O)c1ccc(S(=O)(=O)N(C)C)cc1 (stereo in doubt) [Compound 119, trans-N^1-(2-(((S)-1-(4-chloro-2-fluorophenyl)-pyrrolidin-3-yl)(methyl)-amino)cyclohexyl)-N^4,N^4-dimethylbenzene-1,4-disulfonamide] |
| 300 to 1000 | – | – | CN(C)S(=O)(=O)c1ccc(S(=O)(=O)N[C@H]2CCCC[C@@H]2N2CCN(c3ccc(Cl)cc3F)CC2)cc1 [Compound 105, N^1-((1S,2S)-2-(4-(4-chloro-2-fluorophenyl)piperazin-1-yl)cyclohexyl)-N^4,N^4-dimethylbenzene-1,4-disulfonamide] |
| < 300 | – | > 5000 | CN(C1CCCC[C@@H]1NS(=O)(=O)c1ccc(S(=O)(=O)N(C)C)cc1)[C@@H]1CCN(c2ccc(Cl)cc2F)C1 (stereo partly drawn) [Compound 118, trans-N^1-(2-(((R)-1-(4-Chloro-2-fluorophenyl)pyrrolidin-3-yl)(methyl)amino)cyclohexyl)-N^4,N^4-dimethylbenzene-1,4-disulfonamide] |
